Data: US12403144B2, “HECT E3 ligase inhibitors and uses thereof” (IFOM FONDAZIONE ISTITUTO FIRC DI ONCOLOGIA MOLECOLARE, priority 2019, dated 2025)
Where a name gives a salt, the structure may show the parent alone.

Legend:
[1] = molecular target: T1, untagged HECT of NEDD4 wild-type (WT) (E3 ligase) (Homo sapiens, UniProt P46934); assay: In vitro ubiquitination assay TR-FRET based (self-ubiquitination of NEDD4); assay type: biochemical; conditions: for inhibition at 11 µM: pre-incubated for 1 hour, AUC of 120 minutes kinetic, read-out: percentages of inhibition (NEDD4)
T1 construct: untagged HECT of NEDD4 wild-type (WT) (E3 ligase); made in house
T1 sequence (P46934 519-900 isoform P46934-4 limits assumed): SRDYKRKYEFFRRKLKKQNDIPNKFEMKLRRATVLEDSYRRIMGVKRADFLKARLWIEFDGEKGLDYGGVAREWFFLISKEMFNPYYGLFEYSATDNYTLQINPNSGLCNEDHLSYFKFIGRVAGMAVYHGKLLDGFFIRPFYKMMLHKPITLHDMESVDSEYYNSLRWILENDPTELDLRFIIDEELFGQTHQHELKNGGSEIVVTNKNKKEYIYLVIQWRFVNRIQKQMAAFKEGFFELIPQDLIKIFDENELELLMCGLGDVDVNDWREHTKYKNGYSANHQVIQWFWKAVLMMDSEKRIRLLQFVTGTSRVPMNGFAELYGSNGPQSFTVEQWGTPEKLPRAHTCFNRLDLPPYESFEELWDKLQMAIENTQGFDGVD
How it was run: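 Mix of E1, His-UBE2D3 and untagged NEDD4 HECT (final 30, 350, 50 nM) with Eu-cryptate/Cy5/unlabelled ubiquitin in pH 7.6 Tris buffer, compounds (100–0.005 μM dilution series) pre-incubated 1 h, then started with ATP. 665/620 nm TR-FRET followed 120 min; % inhibition from AUC versus DMSO, no-ATP background.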

[2] = molecular target: T2, untagged HECT of ITCH (E3 ligase) (Homo sapiens, UniProt Q96J02); assay: In vitro ubiquitination assay TR-FRET based, ITCH; assay type: biochemical; conditions: read-out: percentage of inhibition (ITCH)
T2 construct: using untagged HECT of ITCH (E3 ligase) instead of untagged HECT of NEDD4 wild-type (WT) (E3 ligase); made in house
Method: To determine the selectivity of identified NEDD4 inhibitors, it was quantitatively measured the self-ubiquitination process of the E3 HECT ligase belonging to NEDD4 family such as NEDD4L, HECW2 and ITCH in presence or not of some compounds such as 5, 9, 12, 29, 42, 45, 56, 58, 61, 77, 78, 85 and 94 employing TR-FRET based assays.
The assay was performed as described above in the paragraph titled “In vitro ubiquitination assay TR-FRET based” under the heading “2.1. NEDD4 UBIQUITINATION ASSAYS” using untagged HECT of ITCH (E3 ligase) instead of untagged HECT of NEDD4 wild-type (WT) (E3 ligase). In this case, final E1, E2 and E3 concentrations in the assay buffer (Tris-HCl pH 7.6 25 mM, NaCl 100 mM, MgCl2 5 mM and Tween 0.01%) were 30, 350 and 60 nanomolars, respectively. Untagged HECT of ITCH (E3 ligase) enzyme was produced and purified as reported in E. Maspero et al. Methods Mol Biol. 1449:153-60 (2016) and in E. Maspero et al. EMBO Reports 12:342-349(2011).

T2 sequence (Q96J02 569-903 limits assumed): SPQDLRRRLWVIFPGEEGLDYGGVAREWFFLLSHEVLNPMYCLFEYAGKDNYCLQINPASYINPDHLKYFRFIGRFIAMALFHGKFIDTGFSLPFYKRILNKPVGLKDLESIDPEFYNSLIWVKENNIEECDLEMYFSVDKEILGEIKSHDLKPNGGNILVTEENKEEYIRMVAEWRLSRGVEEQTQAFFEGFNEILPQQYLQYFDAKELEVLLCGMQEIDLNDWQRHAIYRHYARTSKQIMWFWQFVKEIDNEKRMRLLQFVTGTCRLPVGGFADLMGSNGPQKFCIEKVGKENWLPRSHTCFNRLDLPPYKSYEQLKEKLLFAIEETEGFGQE

inhibition at 11 µM [1] | inhibition at 11 µM [2] | SMILES | inhibition of enzymatic activity, TR-FRET kinetic assay (% of signal/background during the time) ([1]; FIG. 1, HECT NEDD4 WT, concentrations indicated in the figure)
> 50% | < 15% | CCOC(=O)/C=C/CCNCCCN1c2ccccc2CCc2ccc(Cl)cc21 [Compound 5, Ethyl (E)-5-[3-(3-chloro-10,11-dihydro-5H-dibenzo[b,f]azepin-5-yl)propylamino]pent-2-enoate maleate] | –
> 50% | < 20% | CON(C)C(=O)/C=C/CN(C)CCCCN1c2ccccc2CCc2ccc(Cl)cc21 [Compound 9, (E)-4-[4-(3-Chloro-10,11-dihydro-5H-dibenzo[b,f]azepin-5-yl)butyl-methyl-amino]-N-methoxy-N-methyl-but-2-enamide] | –
> 50% | < 5% | CCOC(=O)/C=C/CNCCCCN1c2ccccc2CCc2ccc(Cl)cc21.O=C(O)/C=C\C(=O)O [Compound 12, Ethyl (E)-4-[4-(3-chloro-10,11-dihydro-5H-dibenzo[b,f]azepin-5-yl)butylamino]but-2-enoate maleate] | dose dependent inhibition of enzymatic activity
> 50% | < 5% | CCOC(=O)/C=C/CNCCCCN1c2ccccc2C(=O)N(C)c2ccc(Cl)cc21 [Compound 29, Ethyl (E)-4-{[4-(7-chloro-10-methyl-11-oxo-10,11-dihydro-5H-dibenzo[b,e][1,4]diazepin-5-yl)butyl]amino}but-2-enoate maleate] | –
> 50% | < 15% | CCOC(=O)/C=C/CNCCCCN1c2cc(Cl)ccc2C(=O)N(C)c2ccccc21 [Compound 42, Ethyl (E)-4-{[4-(3-chloro-10-methyl-11-oxo-10,11-dihydro-5H-dibenzo[b,e][1,4]diazepin-5-yl)butyl]amino}but-2-enoate maleate] | –
> 50% | < 5% | CCOC(=O)/C=C/CNCCCCN1c2ccccc2C(=O)N(Cc2ccccc2)c2ccc(Cl)cc21 [Compound 45, Ethyl (E)-4-{[4-(10-benzyl-7-chloro-11-oxo-10,11-dihydro-5H-dibenzo[b,e][1,4]diazepin-5-yl)butyl]amino}but-2-enoate maleate] | –
> 50% | < 15% | CCOC(=O)/C=C/CNCCCCN1c2cc(Cl)ccc2C(=O)N(Cc2ccccc2)c2ccccc21 [Compound 56, Ethyl (E)-4-((4-(10-benzyl-3-chloro-11-oxo-10,11-dihydro-5H-dibenzo[b,e][1,4]diazepin-5-yl)butyl)amino)but-2-enoate maleate] | –
> 50% | < 15% | COC(=O)/C=C/CN(C)CCCCN1c2cc(Cl)ccc2C(=O)N(Cc2ccccc2)c2ccccc21 [Compound 58, Methyl (E)-4-{[4-(10-benzyl-3-chloro-11-oxo-10,11-dihydro-5H-dibenzo[b,e][1,4]diazepin-5-yl)butyl](methyl)amino}but-2-enoate maleate] | –
> 50% | < 5% | CN(C/C=C/C#N)CCCCN1c2cc(Cl)ccc2C(=O)N(Cc2ccccc2)c2ccccc21 [Compound 61, (E)-4-{[4-(10-benzyl-3-chloro-11-oxo-10,11-dihydro-5H-dibenzo[b,e][1,4]diazepin-5-yl)butyl](methyl)amino}but-2-enenitrile maleate] | –
> 50% | < 5% | C#CCON(C)C(=O)/C=C/CN(C)CCCCN1c2ccccc2CCc2ccc(Cl)cc21 [Compound 77, (E)-4-[4-(3-Chloro-10,11-dihydro-5H-dibenzo[b,f]azepin-5-yl)butyl-methyl-amino]-N-methyl-N-prop-2-ynoxy-but-2-enamide maleate] | –
> 50% | < 20% | CONC(=O)/C=C/CNCCCCN1c2ccccc2CCc2ccc(Cl)cc21 [Compound 78, (E)-4-[4-(3-Chloro-10,11-dihydro-5H-dibenzo[b,f]azepin-5-yl)butylamino]-N-methoxy-but-2-enamide maleate] | –
> 50% | < 25% | CONC(=O)/C=C/CN(C)CCCCN1c2ccccc2CCc2ccc(Cl)cc21 [Compound 85, (E)-4-[4-(3-Chloro-10,11-dihydro-5H-dibenzo[b,f]azepin-5-yl)butyl-methyl-amino]-N-methoxy-but-2-enamide maleate] | –
> 50% | < 15% | CN(C/C=C/C(=O)OCCOCCOCCOCCNC(=O)CCCC[C@@H]1SC[C@@H]2NC(=O)N[C@@H]21)CCCCN1c2ccccc2CCc2ccc(Cl)cc21 [Compound 94, 2-[2-(2-{2-[5-((3aS,4S,6aR)-2-Oxo-hexahydro-thieno[3,4-d]imidazol-4-yl)-pentanoylamino]-ethoxy}-ethoxy)-ethoxy]-ethyl (E)-4-{[4-(3-chloro-10,11-dihydro-dibenzo[b,f]azepin-5-yl)-butyl]-methyl-amino}but-2-enoate] | –
